Measured values reported in patent US8471015B2, “Process for producing a green fluorescent protein comprising coelenteramide or an analog thereof” (JNC Corporation, priority 2009, dated 2013).
Read-outs that look alike come from different tables or passages of the source.

Columns and labels:
apoaequorin = target: T1, apoaequorin (Aequorea victoria, UniProt P07164); format: biochemical
T1 construct: OmpA signal peptide (N, cleaved yes); made in house; host or cells: Escherichia coli strain WA802
T1 sequence (P07164 other isoform, or with tags, fused parts or gaps with the stated changes): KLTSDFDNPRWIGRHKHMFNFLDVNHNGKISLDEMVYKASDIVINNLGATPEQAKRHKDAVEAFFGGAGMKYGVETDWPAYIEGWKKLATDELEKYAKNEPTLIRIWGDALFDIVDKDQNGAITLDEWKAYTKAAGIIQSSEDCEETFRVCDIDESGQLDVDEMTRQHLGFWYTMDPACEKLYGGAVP
Protocol: Apoaequorin (0.5 mg, 22 nmol) was mixed with 10 μl of coelenteramide (1.2 μg/μl, 29 nmol, in anhydrous methanol) in 1 ml of 50 mM Tris-HCl (pH 7.6) containing 10 mM CaCl2 and 1 mM DTT. […] Subsequently, syn-BFP was treated at 4° C., 5,000×g for 20 minutes using centrifugal concentrator Vivaspin 2 (10,000 MWCO, Sartorius AG, Germany) to concentrate the mixture to 0.1 ml.
Regarding the production of synthetic gFP (syn-gFP) from apoaequorin and coelenteramide, apoaequorin (0.5 mg, 22 nmol) was mixed with 10 μl of coelenteramide (1.2 μg/μl, 29 nmol, in anhydrous methanol) in 1 ml of 50 mM Tris-HCl (pH 7.6) containing 10 mM EDTA and 1 mM DTT. […]
Absorption spectra were measured at 25° C. with a Jasco (Tokyo, Japan) V-560 spectrophotometer (bandwidth: 0.5 nm, response, medium; scan speed, 100 nm/min.) using a quartz cuvette (10 mm light path). Also, fluorescence spectra were measured on a Jasco FP-6500 fluorescence spectrophotometer (emission/excitation bandwidth: 3 nm, response: 0.5 sec., scan speed: 1000 nm/min.).

| Structure (SMILES) | Fluorescence intensity (rlu) (excited at 332 nm) (apoaequorin; 10 mM Ca^2+ (Imax, 465 nm), +DTT, 0 hr) | Fluorescence intensity (rlu) (excited at 332 nm) (apoaequorin; 10 mM Ca^2+ (Imax, 465 nm), +DTT, 0.5 hr) | Fluorescence intensity (rlu) (excited at 332 nm) (apoaequorin; 10 mM Ca^2+ (Imax, 465 nm), +DTT, 16 hrs) | Fluorescence intensity (rlu) (excited at 332 nm) (apoaequorin; 10 mM Ca^2+ (Imax, 465 nm), -DTT series, then +DTT, 24 hrs) | Fluorescence intensity (rlu) (excited at 332 nm) (apoaequorin; 10 mM Ca^2+ (Imax, 465 nm), -DTT, 0 hr) | Fluorescence intensity (rlu) (excited at 332 nm) (apoaequorin; 10 mM Ca^2+ (Imax, 465 nm), -DTT, 16 hrs) | Fluorescence intensity (rlu) (excited at 332 nm) (apoaequorin; 10 mM EDTA (Imax, 469.5 nm), +DTT, 0 hr) | Fluorescence intensity (rlu) (excited at 332 nm) (apoaequorin; 10 mM EDTA (Imax, 469.5 nm), +DTT, 0.5 hr) | Fluorescence intensity (rlu) (excited at 332 nm) (apoaequorin; 10 mM EDTA (Imax, 469.5 nm), +DTT, 16 hrs) | Fluorescence intensity (rlu) (excited at 332 nm) (apoaequorin; 10 mM EDTA (Imax, 469.5 nm), -DTT series, then +DTT, 24 hrs) | Fluorescence intensity (rlu) (excited at 332 nm) (apoaequorin; 10 mM EDTA (Imax, 469.5 nm), -DTT, 0 hr) | Fluorescence intensity (rlu) (excited at 332 nm) (apoaequorin; 10 mM EDTA (Imax, 469.5 nm), -DTT, 16 hrs) | melting point [°C] |
| --- | --- | --- | --- | --- | --- | --- | --- | --- | --- | --- | --- | --- | --- |
| O=C(Cc1ccc(O)cc1)Nc1ncc(-c2ccc(O)cc2)nc1Cc1ccccc1 [Coelenteramide, coelenteramide] | 25.4 | 28.4 | 29.5 | 22.0 | 9.8 | 11.3 | 20.2 | 22.7 | 23.1 | 24.3 | 14.8 | 18.7 | – |
| COc1ccc(CC(=O)Nc2ncc(-c3ccc(OC)cc3)nc2Cc2ccccc2)cc1 [IV, coelenteramide dimethyl ether] | – | – | – | – | – | – | – | – | – | – | – | – | 189.5 to 191 |
